Measured values reported in ChEMBL document CHEMBL4371047, “Effect of α-Methoxy Substitution on the Anti-HIV Activity of Dihydropyrimidin-4(3 H)-ones” (J Med Chem, 2019).

Legend:
[1] = target: Human immunodeficiency virus type 1 reverse transcriptase (Human immunodeficiency virus 1) (UniProt Q72547)
Description: Inhibition of recombinant wild type HIV-1 His-tagged reverse transcriptase p66/p51 expressed in Escherichia coli assessed as reduction in [3H]dTTP incorporation using poly(rA)/oligo(dT) as template/primer after 20 mins by scintillation counting analysis

[2] = test system: Human immunodeficiency virus 1; assay: Antiviral activity against HIV-1 harboring reverse transcriptase K103N mutant infected in human MT4 cells assessed as inhibition of virus-induced cytopathic effect after 5 days by MTT assay; format: functional, organism-based; details: Human immunodeficiency virus 1, MT4, 120 h
[3] = test system: Human immunodeficiency virus type 1 reverse transcriptase (Human immunodeficiency virus 1), Q72547 [K103N]
Description: Inhibition of recombinant HIV-1 His-tagged reverse transcriptase p66/p51 K103N mutant expressed in Escherichia coli assessed as reduction in [3H]dTTP incorporation using poly(rA)/oligo(dT) as template/primer after 20 mins by scintillation counting analysis

[4] = test system: Human immunodeficiency virus type 1 reverse transcriptase (Human immunodeficiency virus 1), Q72547 [L100I]
[5] = test system: Human immunodeficiency virus 1; assay: Resistance index, ratio of EC50 for HIV-1 harboring reverse transcriptase Y188L mutant to EC50 for wild type HIV-1 NL4-3; format: functional
[6] = test system: Human immunodeficiency virus 1; assay: Resistance index, ratio of EC50 for HIV-1 harboring reverse transcriptase K103N mutant to EC50 for wild type HIV-1 NL4-3; format: functional
[7] = test system: Human immunodeficiency virus 1; assay: Resistance index, ratio of ID50 for recombinant HIV-1 His-tagged reverse transcriptase p66/p51 Y181I mutant to ID50 for recombinant wild type HIV-1 reverse transcriptase His-tagged p66/p51
[8] = test system: Human immunodeficiency virus 1; assay: Antiviral activity against wild type HIV 1 NL4-3 infected in human MT4 cells assessed as inhibition of virus-induced cytopathic effect after 5 days by MTT assay; format: functional, organism-based; details: Human immunodeficiency virus 1, NL4-3, MT4, 120 h
[9] = test system: Human immunodeficiency virus type 1 reverse transcriptase (Human immunodeficiency virus 1), Q72547 [Y181I]
[10] = test system: Human immunodeficiency virus 1; assay: Antiviral activity against HIV-1 harboring reverse transcriptase Y188L mutant infected in human MT4 cells assessed as inhibition of virus-induced cytopathic effect after 5 days by MTT assay; format: functional, organism-based; details: Human immunodeficiency virus 1, MT4, 120 h
[11] = test system: Human immunodeficiency virus 1; assay: Antiviral activity against HIV 1 harboring reverse transcriptase Y181C mutant infected in human MT4 cells assessed as inhibition of virus-induced cytopathic effect after 5 days by MTT assay; format: functional, organism-based; details: Human immunodeficiency virus 1, MT4, 120 h
[12] = test system: Human immunodeficiency virus 1; assay: Resistance index, ratio of EC50 for HIV-1 harboring reverse transcriptase Y181C mutant to EC50 for wild type HIV-1 NL4-3; format: functional
[13] = test system: Human immunodeficiency virus 1; assay: Resistance index, ratio of ID50 for recombinant HIV-1 His-tagged reverse transcriptase p66/p51 K103N mutant to ID50 for recombinant wild type HIV-1 reverse transcriptase His-tagged p66/p51
[14] = Therapeutic index, ratio of CC50 for human MT4 cells to EC50 for HIV-1 NL4-3 infected in human MT4 cells; format: toxicity, cell-based; details: read-out: Ratio CC50/EC50
[15] = Cytotoxicity against human MT4 cells assessed as reduction in cell viability after 5 days by MTT assay; format: cell-based
[16] = test system: Human immunodeficiency virus 1; assay: Resistance index, ratio of ID50 for recombinant HIV-1 His-tagged reverse transcriptase p66/p51 L100I mutant to ID50 for recombinant wild type HIV-1 reverse transcriptase His-tagged p66/p51

SMILES | ID50 [1] [nM] | EC50 [2] [nM] | ID50 [3] [nM] | ID50 [4] [nM] | Ratio EC50 [5] | Ratio EC50 [6] | Ratio [7] | EC50 [8] [nM] | ID50 [9] [nM] | EC50 [10] [nM] | EC50 [11] [nM] | Ratio EC50 [12] | Ratio [13] | selectivity ratio [14] | CC50 at 120 h [15] [nM] | Ratio [16]
COC(c1nc(NC(C)C)[nH]c(=O)c1C)c1c(F)cccc1Cl (stereo not drawn) | 110 | 620 | 1600 | 1900 | 293 | 21 | 29 | 29 | 3200 | 8500 | 1400 | 48 | 14 | > 2670 | > 77400 | 17
CCC(c1nc(SC2CCCC2)[nH]c(=O)c1C)c1c(F)cccc1Cl (stereo not drawn) | 4 | > 3000 | 340 | 68 | – | – | – | – | – | – | – | – | – | > 5 | > 3000 | –
Cc1c([C@@H](C)c2c(F)cccc2F)nc(SC2CCCC2)[nH]c1=O | 155 | 282 | 540 | 2700 | 745 | 26 | 31 | 11 | 4800 | 8200 | 1280 | 116 | 3 | 3240 | 35600 | 17
CCCN(C)c1nc(C(OC)c2c(F)cccc2Cl)c(C)c(=O)[nH]1 (stereo not drawn) | 26 | 12 | 288 | 950 | 30 | 3 | 42 | 4 | 1100 | 120 | 98 | 24 | – | > 18500 | > 74100 | 36
CCC(C)Sc1nc(C(OC)c2c(Cl)cccc2Cl)c(C)c(=O)[nH]1 (stereo not drawn) | 15 | 770 | 3700 | 5200 | 6444 | 856 | – | 0.9 | > 40000 | 5800 | 2800 | 3111 | 247 | 36400 | 32800 | 347
CCCN(C)c1nc([C@H](OC)c2c(Cl)cccc2Cl)c(C)c(=O)[nH]1 | 8 | 2 | 16 | 150 | 22 | 5 | 42 | 0.4 | 340 | 9 | 3 | 7 | 2 | 162000 | 65000 | 19
Cc1c([C@H](C)c2c(F)cccc2F)nc(SC2CCCC2)[nH]c1=O | 5 | 1 | 10 | 90 | 467 | 3 | 30 | 0.3 | 150 | 140 | 11 | 37 | 2 | 185000 | 55600 | 18
COC(c1nc(SC(C)C)[nH]c(=O)c1C)c1c(Cl)cccc1Cl (stereo not drawn) | 59 | 1900 | 9300 | 7900 | 1800 | 475 | – | 4 | > 40000 | 7200 | 3200 | 800 | 158 | 12900 | 51700 | 134
CCCN(C)c1nc(C(OC)c2c(F)cccc2F)c(C)c(=O)[nH]1 (stereo not drawn) | 35 | 31 | 150 | 1400 | 26 | – | 34 | 5 | 1200 | 230 | 180 | 20 | 4 | > 15600 | > 77800 | 40
Cc1c(C(C)c2c(F)cccc2F)nc(SC(C)C)[nH]c1=O (stereo not drawn) | – | – | – | – | – | – | – | – | – | – | – | – | – | > 3000 | > 3000 | –
CCC(c1nc(SC(C)C)[nH]c(=O)c1C)c1c(F)cccc1Cl (stereo not drawn) | 6 | > 3000 | 420 | 120 | – | – | – | – | – | – | – | – | – | > 36 | > 3000 | –
CO[C@H](c1nc(SC(C)C)[nH]c(=O)c1C)c1c(F)cccc1Cl | 77 | 380 | 950 | 12300 | 75 | – | 75 | 35 | 5800 | 3800 | 1350 | – | 12 | > 1160 | > 40500 | 160
CCC(C)Sc1nc(C(CC)c2c(F)cccc2Cl)c(C)c(=O)[nH]1 (stereo not drawn) | 2 | > 3000 | 450 | 120 | – | – | – | – | – | – | – | – | – | > 56 | > 3000 | –
COC(c1nc(SC2CCCC2)[nH]c(=O)c1C)c1c(Cl)cccc1Cl (stereo not drawn) | 95 | 2900 | 12400 | 8400 | 900 | 362 | – | 8 | > 40000 | 7200 | 4000 | 500 | 131 | 3660 | 29300 | 88
CCCNc1nc(C(OC)c2c(F)cccc2Cl)c(C)c(=O)[nH]1 (stereo not drawn) | 65 | 150 | 540 | 1700 | 555 | 17 | 43 | 9 | 2800 | 5000 | 940 | 104 | 8 | 8600 | 77400 | –
